Values quoted from earlier work as cited in patent publication US20200306172A1, “DEPIGMENTING DERMATOLOGICAL AND COSMETIC COMPOSITIONS” (NUNII LABORATOIRE, priority 2017, published 2020).
Like-named read-outs stand apart in the source and are kept apart here.

Key:
[1] = pH 4 to pH 6
[2] = powder raw material

Compound | stability [1] | solubility [2] | depigmenting activity (kojic acid at 1%) | depigmenting activity (kojic acid at 4% dose)
CCOC1=C(O)C(=O)O[C@@H]1[C@@H](O)CO [3-O-ethyl-L-ascorbic acid] | more stable than ascorbic acid and its other derivatives | soluble in water and alcohol | – | –
NC(=O)c1cccnc1 [Niacinamide] | – | readily soluble in water, alcohol or glycerol | – | –
Oc1ccc(/C=C/c2cc(O)cc(O)c2)cc1 [Trans-resveratrol] | – | soluble in polyethylene glycols and propylene glycols | – | –
O=c1cc(CO)occ1O [kojic acid] | – | – | no depigmenting activity | shows a depigmenting effect
OCC1O[C@H](Oc2ccc(O)cc2)C(O)C(O)[C@@H]1O (stereo partly drawn) [α-arbutin] | – | readily soluble in water | – | –
